Measured values as given in patent US20210261512A1, “NOVEL COMPOUNDS” (INFLAZOME LIMITED, priority 2018, published 2021).

The compounds below were run against NLRP3 (Homo sapiens, UniProt Q96P20) (assay: THP-1 cells pyroptosis assay). Settings: LPS 1.0 μg/ml, nigericin 5 μM, resazurin readout, 10 μM top dose (Example 2: top dose of 30 μM).
Sequence of NLRP3 (Q96P20 whole entry): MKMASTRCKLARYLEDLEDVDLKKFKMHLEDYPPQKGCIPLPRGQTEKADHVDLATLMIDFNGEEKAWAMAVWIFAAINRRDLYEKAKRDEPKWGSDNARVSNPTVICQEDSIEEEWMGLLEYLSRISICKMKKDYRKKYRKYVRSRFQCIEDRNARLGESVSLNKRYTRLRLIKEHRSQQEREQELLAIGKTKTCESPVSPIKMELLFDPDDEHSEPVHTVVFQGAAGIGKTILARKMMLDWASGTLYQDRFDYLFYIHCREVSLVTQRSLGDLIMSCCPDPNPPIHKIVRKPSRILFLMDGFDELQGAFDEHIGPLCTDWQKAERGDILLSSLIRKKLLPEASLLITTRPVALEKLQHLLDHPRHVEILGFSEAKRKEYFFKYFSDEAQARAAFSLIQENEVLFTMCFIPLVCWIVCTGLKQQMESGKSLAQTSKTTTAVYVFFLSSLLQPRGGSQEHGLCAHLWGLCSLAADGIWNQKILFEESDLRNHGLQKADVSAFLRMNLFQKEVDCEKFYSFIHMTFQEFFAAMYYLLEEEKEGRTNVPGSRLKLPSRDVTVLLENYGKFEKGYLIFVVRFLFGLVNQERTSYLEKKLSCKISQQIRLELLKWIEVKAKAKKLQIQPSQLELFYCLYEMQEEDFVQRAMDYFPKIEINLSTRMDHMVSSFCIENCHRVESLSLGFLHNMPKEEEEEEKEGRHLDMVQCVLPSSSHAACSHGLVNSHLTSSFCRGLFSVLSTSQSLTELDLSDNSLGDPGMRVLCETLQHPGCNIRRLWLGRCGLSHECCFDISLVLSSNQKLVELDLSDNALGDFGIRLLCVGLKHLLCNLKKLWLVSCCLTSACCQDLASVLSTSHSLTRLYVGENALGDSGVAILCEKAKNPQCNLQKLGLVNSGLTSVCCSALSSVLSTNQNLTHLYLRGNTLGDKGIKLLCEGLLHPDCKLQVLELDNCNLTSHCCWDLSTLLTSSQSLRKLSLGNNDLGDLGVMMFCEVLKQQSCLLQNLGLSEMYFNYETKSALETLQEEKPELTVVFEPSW
Assay type: cell-based
Set-up: Seed THP-1 cells (25,000 cells/well) containing 1.0 μg/ml LPS; host or cells: THP-1
Outline: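 Pyroptosis induced by 5 μM nigericin (1 h) in LPS-primed (1 μg/ml) THP-1 cells, 25,000/well in serum-free RPMI, after 3 h compound pre-treatment (8 points, 10 μM top unless stated). Surviving cells measured with 100 μM resazurin, Ex 560/Em 590; IC50 via variable-slope 4-parameter regression.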
For `CC(C)(O)c1ccc(S(=O)(=O)c2nnc(Nc3c4c(cc5c3CCC5)CCC4)[nH]2)cc1` [Example 186, 2-(4-((5-((1,2,3,5,6,7-hexahydro-s-indacen-4-yl)amino)-4H-1,2,4-triazol-3-yl)sulfonyl)phenyl) propan-2-01], the IC50 was ≤ 0.5 µM. In the case of `Cc1ccccc1S(=O)(=O)c1nnc(Nc2c3c(cc4c2CCC4)CCC3)[nH]1` [Example 187, N-(1,2,3,5,6,7-hexahydro-s-indacen-4-yl)-5-(o-tolylsulfonyl)-4H-1,2,4-triazol-3-amine], the IC50 is reported as ≤ 1 µM. With `N#Cc1cccc(S(=O)(=O)c2nnc(Nc3c4c(cc5c3CCC5)CCC4)[nH]2)c1` [Example 188, 3-((5-((1,2,3,5,6,7-hexahydro-s-indacen-4-yl)amino)-4H-1,2,4-triazol-3-yl)sulfonyl)benzonitrile] the IC50 was ≤ 5 µM. With `O=S(=O)(c1ccccc1)c1nnc(Nc2c(-c3ccncc3)ccc3c2CCC3)[nH]1` [Example 189, 5-(phenylsulfonyl)-N-(5-(pyridin-4-yl)-2,3-dihydro-1H-inden-4-yl)-4H-1,2,4-triazol-3-amine] the IC50 was ≤ 10 µM. `COc1cc(-c2ccc3c(c2Nc2nnc(S(=O)(=O)c4ccccc4)[nH]2)CCO3)ccn1` [Example 190, N-(5-(2-methoxypyridin-4-yl)-2,3-dihydrobenzofuran-4-yl)-5-(phenylsulfonyl)-4H-1,2,4-triazol-3-amine] was tested, and the IC50 was ≤ 5 µM. With `CC(C)c1cc(F)cc(-c2ccncc2)c1Nc1nnc(S(=O)(=O)c2ccccc2)[nH]1` [Example 191, N-(4-fluoro-2-isopropyl-6-(pyridin-4-yl)phenyl)-5-(phenylsulfonyl)-4H-1,2,4-triazol-3-amine] the IC50 was ≤ 10 µM. `O=S(=O)(c1cnn(C2CC2)c1)c1nnc(Nc2c3c(cc4c2CCC4)CCC3)[nH]1` [Example 193, 3-((1-cyclopropyl-H-pyrazol-4-yl)sulfonyl)-N-(1,2,3,5,6,7-hexahydro-s-indacen-4-yl)-1H-1,2,4-triazol-5-amine] was tested, and the IC50 was ≤ 5 µM. For `O=S(=O)(c1nnc(Nc2c3c(cc4c2CCC4)CCC3)[nH]1)C1CCCC(N2CCCC2)C1` (centres unmarked) [Example 194, N-(1,2,3,5,6,7-hexahydro-s-indacen-4-yl)-3-((3-(pyrrolidin-1-yl)cyclohexyl)sulfonyl)-1H-1,2,4-triazol-5-amine], the IC50 was ≤ 10 µM. `CC(C)n1ncc(-c2ccncc2)c1Nc1nnc(S(=O)(=O)N2CCC(N(C)C)CC2)[nH]1` [Example 198, 1-((5-((1-isopropyl-4-(pyridin-4-yl)-1H-pyrazol-5-yl)amino)-4H-1,2,4-triazol-3-yl)sulfonyl)-N,N-dimethylpiperidin-4-amine] was tested, and the IC50 was ≤ 10 µM. With `CN(C)C1CCN(S(=O)(=O)c2nnc(Nc3c(-c4ccnn4C)ccc4c3CCC4)[nH]2)CC1` [Example 205, N,N-dimethyl-1-((5-((5-(1-methyl-1H-pyrazol-5-yl)-2,3-dihydro-1H-inden-4-yl)amino)-4H-1,2,4-triazol-3-yl)sulfonyl)piperidin-4-amine] the IC50 was ≤ 10 µM. For `Cc1ccc(C(C)C)c(Nc2nnc(S(=O)(=O)N3CCC(N(C)C)CC3)[nH]2)c1` [Example 206, 1-((5-((2-isopropyl-5-methylphenyl)amino)-4H-1,2,4-triazol-3-yl)sulfonyl)-N,N-dimethylpiperidin-4-amine], the IC50 was ≤ 10 µM. With `CN(C)C1CCN(S(=O)(=O)c2nnc(Nc3c(-c4cnn(C)c4)ccc4c3CCC4)[nH]2)CC1` [Example 207, N,N-dimethyl-1-((5-((5-(1-methyl-1H-pyrazol-4-yl)-2,3-dihydro-1H-inden-4-yl)amino)-4H-1,2,4-triazol-3-yl)sulfonyl)piperidin-4-amine] the IC50 was ≤ 5 µM. `COc1cc(-c2c(C)cccc2Nc2nnc(S(=O)(=O)N3CCC(N(C)C)CC3)[nH]2)ccn1` [Example 208, 1-((5-((2-(2-methoxypyridin-4-yl)-3-methylphenyl)amino)-4H-1,2,4-triazol-3-yl)sulfonyl)-N,N-dimethylpiperidin-4-amine] was tested, and the IC50 was ≤ 10 µM. For `CN(C)C1CCN(S(=O)(=O)c2nnc(Nc3c(C4CCOCC4)ccc4c3CCC4)[nH]2)CC1` [Example 209, N,N-dimethyl-1-((5-((5-(tetrahydro-2H-pyran-4-yl)-2,3-dihydro-1H-inden-4-yl)amino)-4H-1,2,4-triazol-3-yl)sulfonyl)piperidin-4-amine], the IC50 was ≤ 10 µM. In the case of `CN(C)C1CCN(S(=O)(=O)c2nnc(Nc3c4c(c(C#N)c5c3CCC5)CCC4)[nH]2)CC1` [Example 223, 8-((5-((4-(dimethylamino)piperidin-1-yl)sulfonyl)-4H-1,2,4-triazol-3-yl)amino)-1,2,3,5,6,7-hexahydro-s-indacene-4-carbonitrile], the IC50 is reported as ≤ 5 µM. `COc1cc(-c2cc(-c3ncco3)c3c(c2Nc2nnc(S(=O)(=O)N4CCC(N(C)C)CC4)[nH]2)CCC3)ccn1` [Example 229, 1-((5-((5-(2-methoxypyridin-4-yl)-7-(oxazol-2-yl)-2,3-dihydro-1H-inden-4-yl)amino)-4H-1,2,4-triazol-3-yl)sulfonyl)-N,N-dimethylpiperidin-4-amine] was tested, and the IC50 was ≤ 10 µM. `COc1cc(-c2cc(C#N)c3c(c2Nc2nnc(S(=O)(=O)N4CCC(N(C)C)CC4)[nH]2)CCC3)ccn1` [Example 230, 7-((5-((4-(dimethylamino)piperidin-1-yl)sulfonyl)-4H-1,2,4-triazol-3-yl)amino)-6-(2-methoxypyridin-4-yl)-2,3-dihydro-1H-indene-4-carbonitrile] was tested, and the IC50 was ≤ 5 µM. In the case of `CC(=O)c1c2c(c(Nc3nnc(S(=O)(=O)N4CCC(N(C)C)CC4)[nH]3)c3c1CCC3)CCC2` [Example 232, 1-(8-((5-((4-(dimethylamino)piperidin-1-yl)sulfonyl)-4H-1,2,4-triazol-3-yl)amino)-1,2,3,5,6,7-hexahydro-s-indacen-4-yl)ethan-1-one], the IC50 is reported as ≤ 1 µM. For `CS(=O)(=O)c1nnc(Nc2c(-c3ccnc(OCc4ccccc4)c3)ccc3c2CCC3)[nH]1` [Example 234, N-(5-(2-(benzyloxy)pyridin-4-yl)-2,3-dihydro-1H-inden-4-yl)-5-(methylsulfonyl)-4H-1,2,4-triazol-3-amine], the IC50 was ≤ 5 µM. In the case of `COCC(C)Oc1cc(-c2ccc3c(c2Nc2nnc(S(C)(=O)=O)[nH]2)CCC3)ccn1` (centres unmarked) [Example 237, N-(5-(2-((1-methoxypropan-2-yl)oxy)pyridin-4-yl)-2,3-dihydro-1H-inden-4-yl)-5-(methylsulfonyl)-4H-1,2,4-triazol-3-amine], the IC50 is reported as ≤ 5 µM. With `CS(=O)(=O)c1nnc(Nc2c(-c3ccnc(OCCO)c3)ccc3c2CCC3)[nH]1` [Example 238, 2-((4-(4-((5-(methylsulfonyl)-4H-1,2,4-triazol-3-yl)amino)-2,3-dihydro-1H-inden-5-yl)pyridin-2-yl)oxy)ethan-1-ol] the IC50 was ≤ 10 µM. In the case of `COc1cc(-c2cccc(C(C)C)c2Oc2nnc(S(=O)(=O)N3CCC(N(C)C)CC3)[nH]2)ccn1` [Example 243, 1-((5-(2-isopropyl-6-(2-methoxypyridin-4-yl)phenoxy)-4H-1,2,4-triazol-3-yl)sulfonyl)-N,N-dimethylpiperidin-4-amine], the IC50 is reported as ≤ 5 µM. With `O=S(=O)(c1nnc(Nc2c3c(cc4c2CCC4)CCC3)[nH]1)N1CCC2(CCN(C3CC3)C2)CC1` [Example 244, 5-((2-cyclopropyl-2,8-diazaspiro[4.5]decan-8-yl)sulfonyl)-N-(1,2,3,5,6,7-hexahydro-s-indacen-4-yl)-4H-1,2,4-triazol-3-amine] the IC50 was ≤ 5 µM.
